The numbers were not newly measured in US7592371B2, “External preparation” (Medrx Co., Ltd., priority 2004, dated 2009), which cites them from elsewhere.

The conditions of the series: oral administration.

In the case of `COc1ccc(C=CC(=O)Nc2ccccc2C(=O)O)cc1OC` [tranilast, N-(3,4-Dimethoxycinnamoyl) anthranilic acid], the side effects result was “serious side effects such as hepatic dysfunction and renal dysfunction”.
